Results published in US11407765B2, “Tetracyclic heteroaryl compounds” (AstraZeneca AB, priority 2018, dated 2022).
Like-named read-outs stand apart in the source and are kept apart here.

Tests used:
[1] = target: T1, KRasG12C (Homo sapiens, UniProt P01116, G12C); assay: KRasG12C functional assay (HTRF, SOS-mediated nucleotide exchange / Raf RBD binding); assay type: biochemical; conditions: 4 hrs incubation with GDP loaded biotinylated KRasG12C, single experiment or average of two or more
T1 construct: biotin (biotinylated); made in house
Description: KRasG12C Functional Assay
All enzyme and substrate solutions were prepared in assay buffer containing 20 mM HEPES (pH 7.5), 5 mM MgCl2, 150 mM NaCl, and 0.01% Tween 20. […] In a separate mix 20 nM GST-Raf Ras binding domain (GST-Raf RBD, purified in house) and 4 μg/ml anti-GST XL665 antibody (Cisbio) was prepared in assay buffer containing 50 mM Potassium Fluoride and 0.05 mg/ml BSA and equilibrated for 4 hours before adding 0.6 μM Guanosine 5′-[γ-thio]triphosphate (GTPγS, Sigma) and 0.08 μM SOS (purified in house). 5 μl of the GST-RAF RBD mix was then dispensed into each well of the assay plate. […] This is detected simultaneously via the specific binding interaction between active GTPγS KRas^G12C with GST-Raf RBD which brings the europium and XL665 into close proximity enabling an increased FRET signal to be detected on a Pherastar (BMG) plate reader equipped with the HTRF filter module. […] IC50 values were calculated from normalised dose-response response FRET data curve fitted in Genedata screener (Basel, Switzerland).

[2] = target: T1, KRasG12C; assay: KRasG12C mass spectrometry adducting assay; assay type: binding; conditions: 10 μM test compound, 4 μM GDP loaded KRasG12C, 4 hours
Description: KRasG12C Mass Spectrometry Adducting Assay
Enzyme solutions were prepared in assay buffer containing 20 mM HEPES (pH 7.5), 5 mM MgCl2, and 150 mM NaCl. […] The plate was sealed before reading on a Xevo G2 QTOF (Waters) and Acquity LC system (Waters). 10 μl of sample was injected onto a Xbridge BEH300; C4; 3.5 um; 2.1×50 mm column (Waters) running a 3 minute gradient. Blank samples were run in between each test sample.
Data was analysed in Mass Lynx software (Waters), the Total ion count (TIC) trace was used and the eluted protein peak data combined. Using the combined spectrum the data was deconvoluted using MaxEnt1 method. The peak area for apo-protein KRas^G12C (APO) and KRAS+relative cmpd mass (adduct) were measured, and a percentage adduct was calculated using the following calculation: Percent adduct=100*(area of adduct peak/(sum of APO+adduct peaks)

[3] = read-out: KRasG12C functional assay IC50 value
[4] = KRasG12C functional assay IC50 value

T1 sequence (P01116 1-188 isoform P01116-2 G12C): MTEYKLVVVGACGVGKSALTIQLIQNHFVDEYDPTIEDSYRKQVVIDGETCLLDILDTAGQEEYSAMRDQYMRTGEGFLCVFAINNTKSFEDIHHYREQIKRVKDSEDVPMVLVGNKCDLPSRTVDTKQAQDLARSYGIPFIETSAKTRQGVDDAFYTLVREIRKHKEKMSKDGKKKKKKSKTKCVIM

IC50 [1, 3] [nM]	KRasG12C M. S. Binding Mean adduct % [2] [%]	SMILES	IC50 [1, 4] [nM]
19	98	C=CC(=O)N1CCN2c3ncnc4c(F)c(-c5c(C)ccc6c5C(=O)NC6)c(Cl)c(c34)OC[C@@H]2C1 (single isomer, unassigned) [Example 1]	–
290	25	C=CC(=O)N1CCN2c3ncnc4c(F)c(-c5c(C)ccc6c5C(=O)NC6)c(Cl)c(c34)OC[C@@H]2C1 (single isomer, unassigned) [Example 2]	–
98	95	C=CC(=O)N1CCN2c3ncnc4c(F)c(-c5c(C)ccc6nc[nH]c(=O)c56)c(Cl)c(c34)OC[C@@H]2C1 (single isomer, unassigned) [Example 6]	–
7630	–	C=CC(=O)N1CCN2c3ncnc4c(F)c(-c5c(C)ccc6nc[nH]c(=O)c56)c(Cl)c(c34)OC[C@@H]2C1 (single isomer, unassigned) [Example 7]	–
12	96	C=CC(=O)N1CCN2c3ncnc4c(F)c(-c5c(C)ccc6[nH]cnc56)c(Cl)c(c34)OC[C@@H]2C1 (single isomer, unassigned) [Example 8]	–
230	22	C=CC(=O)N1CCN2c3ncnc4c(F)c(-c5c(C)ccc6[nH]cnc56)c(Cl)c(c34)OC[C@@H]2C1 (single isomer, unassigned) [Example 9]	–
31	95	C=CC(=O)N1CCN2c3ncnc4c(F)c(-c5c(C)cccc5O)c(Cl)c(c34)OC[C@@H]2C1 (single isomer, unassigned) [Example 12]	–
9700	–	C=CC(=O)N1CCN2c3ncnc4c(F)c(-c5c(C)cccc5O)c(Cl)c(c34)OC[C@@H]2C1 (single isomer, unassigned) [Example 13]	–
10	91	C=CC(=O)N1CCN2c3ncnc4c(F)c(-c5c(C)ccc6cc[nH]c(=O)c56)c(Cl)c(c34)OC[C@@H]2C1 (single isomer, unassigned) [Example 16]	–
373	30	C=CC(=O)N1CCN2c3ncnc4c(F)c(-c5c(C)ccc6cc[nH]c(=O)c56)c(Cl)c(c34)OC[C@@H]2C1 (single isomer, unassigned) [Example 17]	–
1310	–	C=CC(=O)N1CCN2c3ncnc4c(F)c(-c5c(F)ccc6[nH]cnc56)c(Cl)c(c34)OC[C@@H]2C1 (single isomer, unassigned) [Example 21]	–
13900	–	C=CC(=O)N1CCN2c3ncnc4c(F)c(-c5c(F)ccc6c5ncn6C)c(Cl)c(c34)OC[C@@H]2C1 (single isomer, unassigned) [Example 25]	–

The next lines start with the compound.

SMILES	IC50 [1, 3] [nM]	KRasG12C M. S. Binding Mean adduct % [2] [%]	IC50 [1, 4] [nM]
C=CC(=O)N1C[C@H]2COc3c(Cl)c(-c4c(O)cccc4F)c(F)c4ncnc(c34)N2C[C@H]1C (single isomer, unassigned) [Example 5]	6350	14	–
CN(C)C/C=C/C(=O)N1CCN2c3ncnc4c(F)c(-c5c(O)cccc5F)c(Cl)c(c34)OC[C@@H]2C1 (single isomer, unassigned) [Example 14]	59	94	–
CN(C)C/C=C/C(=O)N1CCN2c3ncnc4c(F)c(-c5c(O)cccc5F)c(Cl)c(c34)OC[C@@H]2C1 (single isomer, unassigned) [Example 15]	19700	–	–
C=CC(=O)N1CCN2c3ncnc4c(F)c(-c5c(F)ccc6[nH]ncc56)c(Cl)c(c34)OC[C@@H]2C1 (single isomer, unassigned) [Example 23]	8960	–	–
C=CC(=O)N1CCN2c3ncnc4c(F)c(-c5c(F)ccc6[nH]nnc56)c(Cl)c(c34)OC[C@@H]2C1 (single isomer, unassigned) [Example 27]	12000	–	–
C=CC(=O)N1CCN2c3ncnc4c(F)c(-c5c(F)ccc6cc[nH]c(=O)c56)c(Cl)c(c34)OC[C@@H]2C1 (single isomer, unassigned) [Example 29]	2860	–	–
Cc1ccc2[nH]ncc2c1-c1c(Cl)c2c3c(ncnc3c1F)N1CCN(C(=O)/C=C/CN(C)C)C[C@H]1CO2 (single isomer, unassigned) [Example 31]	6830	–	–
C=CC(=O)N1C[C@H]2CCOc3c(Cl)c(-c4c(O)cccc4F)c(F)c4ncnc(c34)N2C[C@@H]1C (single isomer, unassigned) [Example 32]	–	–	3130
C=CC(=O)N1C[C@H]2CCOc3c(Cl)c(-c4c(O)cccc4F)c(F)c4ncnc(c34)N2C[C@@H]1C (single isomer, unassigned) [Example 33]	–	–	229
C=CC(=O)N1CCN2c3ncnc4c(F)c(-c5c(C)ccc6cc[nH]c(=O)c56)c(Cl)c(c34)OCCC2C1 (single isomer, unassigned) [Example 34, 8-[3-Chloro-1-fluoro-8-(prop-2-enoyl)-6,6a,7,8,9,10-hexahydro-5H-pyrazino[1′,2′:5,6][1,5]oxazocino[4,3,2-de]quinazolin-2-yl]-7-methylisoquinolin-1(2H)-one]	1210	–	–
C=CC(=O)N1CCN2c3ncnc4c(F)c(-c5c(C)ccc6cc[nH]c(=O)c56)c(Cl)c(c34)OCCC2C1 (single isomer, unassigned) [Example 35, 8-[3-Chloro-1-fluoro-8-(prop-2-enoyl)-6,6a,7,8,9,10-hexahydro-5H-pyrazino[1′,2′:5,6][1,5]oxazocino[4,3,2-de]quinazolin-2-yl]-7-methylisoquinolin-1(2H)-one]	8510	–	–
C=CC(=O)N1CCN2c3ncnc4c(F)c(-c5c(C)ccc6cc[nH]c(=O)c56)c(Cl)c(c34)OCCC2C1 (single isomer, unassigned) [Example 36, 8-[3-Chloro-1-fluoro-8-(prop-2-enoyl)-6,6a,7,8,9,10-hexahydro-5H-pyrazino[1′,2′:5,6][1,5]oxazocino[4,3,2-de]quinazolin-2-yl]-7-methylisoquinolin-1(2H)-one]	2	–	–
C=CC(=O)N1CCN2c3ncnc4c(F)c(-c5c(C)ccc6cc[nH]c(=O)c56)c(Cl)c(c34)OCCC2C1 (single isomer, unassigned) [Example 37, 8-[3-Chloro-1-fluoro-8-(prop-2-enoyl)-6,6a,7,8,9,10-hexahydro-5H-pyrazino[1′,2′:5,6][1,5]oxazocino[4,3,2-de]quinazolin-2-yl]-7-methylisoquinolin-1(2H)-one]	180	–	–
C=CC(=O)N1C[C@@H]2CCOc3c(Cl)c(-c4c(O)cccc4F)c(F)c4ncnc(c34)N2C[C@H]1C (single isomer, unassigned) [Example 38]	–	–	3650
C=CC(=O)N1C[C@H]2CCOc3c(Cl)c(-c4c(O)cccc4F)c(F)c4ncnc(c34)N2C[C@H]1C (single isomer, unassigned) [Example 40]	–	–	2540
C=CC(=O)N1C[C@H]2CCOc3c(Cl)c(-c4c(O)cccc4F)c(F)c4ncnc(c34)N2C[C@H]1C (single isomer, unassigned) [Example 41]	–	–	674
C=CC(=O)N1C[C@@H]2CCOc3c(Cl)c(-c4c(O)cccc4F)c(F)c4ncnc(c34)N2C[C@@H]1C (single isomer, unassigned) [Example 43]	–	–	2900
C=CC(=O)N1CCN2c3ncnc4c(Cl)c(-c5c(O)cccc5F)c(F)c(c34)OC[C@@H]2C1 (single isomer, unassigned) [Example 44]	62	–	–
C=CC(=O)N1CCN2c3ncnc4c(Cl)c(-c5c(O)cccc5F)c(F)c(c34)OC[C@@H]2C1 (single isomer, unassigned) [Example 45]	89	–	–
C=CC(=O)N1C[C@H]2COc3c(Cl)c(-c4c(C)ccc5[nH]cnc45)c(F)c4ncnc(c34)N2C[C@H]1C (single isomer, unassigned) [Example 46]	59	–	–
C=CC(=O)N1C[C@H]2COc3c(Cl)c(-c4c(C)ccc5[nH]cnc45)c(F)c4ncnc(c34)N2C[C@H]1C (single isomer, unassigned) [Example 47]	11200	–	–
C=CC(=O)N1C[C@H]2COc3c(Cl)c(-c4c(C)ccc5cc[nH]c(=O)c45)c(F)c4ncnc(c34)N2C[C@H]1C (single isomer, unassigned) [Example 48]	46	–	–
C=CC(=O)N1C[C@H]2COc3c(Cl)c(-c4c(C)ccc5cc[nH]c(=O)c45)c(F)c4ncnc(c34)N2C[C@H]1C (single isomer, unassigned) [Example 49]	30000	–	–
Cc1ccc2[nH]cnc2c1-c1c(Cl)c2c3c(ncnc3c1F)N1C[C@@H](C)N(C(=O)/C=C/CN(C)C)C[C@H]1CO2 (single isomer, unassigned) [Example 50]	140	–	–
Cc1ccc2[nH]cnc2c1-c1c(Cl)c2c3c(ncnc3c1F)N1C[C@@H](C)N(C(=O)/C=C/CN(C)C)C[C@H]1CO2 (single isomer, unassigned) [Example 51]	1750	–	–
